Common to all, as to assay type: cell-based
Test [1] relates to IL-6. Briefly: Spontaneous IL-6 release from synovial cells of RA patients. The conditions noted are these: Homo sapiens, Synovial cell, freshly isolated synovial cells from RA patients, 16 hours. As for the experimental part: Cytokine production in synovial cells obtained from rheumatoid arthritis patients undergoing knee replacement surgery, was measured as per the method described in reference, Lancet, 1989, 29, 244-247, the disclosure of which is incorporated herein by reference for the teaching of the assay. The synovial membrane tissue was digested by incubating at 37° C. for 3 hours in an atmosphere of 5% CO2, in Roswell Park Memorial Institute (RPMI) medium containing penicillin-G (100 U/mL), streptomycin (100 μg/mL), amphotericin B (50 ng/mL) (GIBCO), 1.33 mg/mL collagenase Type I (Worthington Biochemical Corporation, New Jersey, USA), 0.5 μg/mL DNAse Type I (SIGMA) and 8.33 U/mL heparin (Biological E. Limited, India). The digested tissue was then filtered through a membrane (mesh size 70 micron) (SIGMA), the cells were washed 3 times and suspended in complete medium (RPMI supplemented with 5% FCS and 5% human serum). The cell concentration was adjusted to 1×10^6 cells/mL. The viability as determined by trypan blue dye exclusion was uniform Ly≧98%. The cell suspension (100 μL) was added to the wells of a 96-well culture plate. […] The final concentration of DMSO was adjusted to 0.5%. The vehicle (0.5° A) DMSO) was used as control. SB 203580 (20 μM) was used as a standard. The plates were incubated for 16 hours at 37° C. in 5% CO2 atmosphere. […]

Test [2] relates to IL-1β. Briefly: LPS-induced IL-1β release from hPBMCs (ELISA). The conditions noted are these: Homo sapiens. As for the experimental part:
(§1) Cytokine production by lipopolysaccharides (LPS) in hPBMCs (human peripheral blood mononuclear cells) was measured as in reference, Physiol. Res. 2003, 52, 593-598, the disclosure of which is incorporated by reference for the teaching of the assay. Blood was collected from healthy donors into Potassium EDTA vacutainer tubes (BID vacutainer). The PBMC were isolated using gradient centrifugation in Histopaque-1077 solution (Sigma). Isolated PBMC were suspended in RPMI 1640 (Rosewell Park Memorial Institute) culture medium (Sigma-Aldrich Fine Chemicals, USA) containing 10% fetal bovine serum (FBS) (JRH, USA), 100 U/mL penicillin (Sigma Chemical Co. St Louis, Mo., USA) and 100 μg/mL streptomycin (Sigma Chemical Co. St Louis, Mo.). The cell concentration was adjusted to 1×10^6 cells/mL. The viability as determined by trypan blue dye exclusion was uniform Ly≧98%. The cell suspension (100 μL) was added to the wells of a 96-well culture plate. Following cell plating, 79 μL of the culture medium and 1 μL of various concentrations of test compounds (compounds of formula 1) (final concentration 0.001, 0.003, 0.005, 0.01, 0.025, 0.03, 0.05, 0.1, 0.25, 0.3 and 1 μM) dissolved in DMSO (dimethyl sulfoxide, Sigma, Mo., USA) were added to the cells. The final concentration of DMSO was adjusted to 0.5%. The vehicle (0.5% DMSO) was used as control. […]

Test [3] has as its system IL-8. The experiment in a line: LPS-induced IL-8 release from hPBMCs (ELISA). The conditions noted are these: Homo sapiens. As for the experimental part: as §1

pIC50: −log10 of the molar value.

In general, pIC50 refers to −log10 of the IC50, conventionally taken in molar units. A low value points to a high IC50.

Consider `CN1CC[C@@H](c2c(O)cc(O)c3c(=O)cc(-c4ccc(C(F)(F)F)cc4Cl)oc23)[C@@H]1CO.Cl` [Compound of example 3, (+)-trans-2-(2-Chloro-4-trifluoromethyl-phenyl)-5,7-dihydroxy-8-(2-hydroxymethyl-1-methyl-pyrrolidin-3-yl)-chromen-4-one hydrochloride], for which the pIC50 is 5.00 in test [1], 7.00 in test [2] and 5.89 in test [3].
